ChEMBL document CHEMBL3885861, “Open TG-GATES”

Species on record: Rattus norvegicus
Experiment: Open TG-GATES - Regimen: Daily Repeat
Assay type: toxicity, organism-based, Sprague-Dawley
Parameters: regimen Daily Repeat, gender Male, age 6 weeks
Details: in vivo, po, route gavage; for APTT / Bas / Eos / Fbg / Hb / Ht / Lym / MCH / MCHC / MCV / Mono / Neu / PT / Plat / RBC / Ret / WBC: tissue Blood; for KIDNEY_L / KIDNEY_R / KIDNEY_TOTAL: tissue Kidney; for LIVER: tissue Liver; for A/G / ALP / ALT / AST / BUN / CRE / Ca / Cl / DBIL / GLC / IP / K / LDH / Na / PL / RALB / TBIL / TC / TG / TP / gamma-GTP: tissue Plasma
[1] = 300 mg/kg, 72 h, dose level Middle, time 3 day
[2] = 300 mg/kg, […], dose level Middle, time 7 day
[3] = 300 mg/kg, […], dose level Middle, time 14 day
[4] = 300 mg/kg, […], dose level Middle, time 28 day
[5] = 1000 mg/kg, 72 h, dose level High, time 3 day
[6] = 1000 mg/kg, […], dose level High, time 7 day
[7] = 1000 mg/kg, […], dose level High, time 14 day
[8] = 1000 mg/kg, […], dose level High, time 28 day

## C[C@H]1O[C@H](O[C@H]2[C@H](O)[C@@H](O)[C@@H](O[C@H]3[C@H](O)[C@@H](O)C(O)O[C@@H]3CO)O[C@@H]2CO)[C@H](O)[C@@H](O)[C@@H]1N[C@H]1C=C(CO)[C@@H](O)[C@H](O)[C@H]1O (some centres undefined) [ACARBOSE]
[1]
  TERMINAL_BW: 230.6 g
  APTT: 16.3 s
  Bas: 0.2%
  Eos: 1%
  Fbg: 299.4 mg/dL
  Hb: 13.6 g/dL
  Ht: 41%
  Lym: 76.6%
  MCH: 21 pg
  MCHC: 33.3%
  MCV: 63 fL
  Mono: 3%
  Neu: 18.4%
  PT: 13 s
  Plat: 120.6 x10_4/uL
  RBC: 650.8 x10_4/ul
  Ret: 7.2%
  WBC: 104.1 x10_2/uL
  KIDNEY_L: 1.1 g
  KIDNEY_R: 1.1 g
  KIDNEY_TOTAL: 2.1 g
  LIVER: 11.2 g
  A/G: 0.9
  ALP: 1565.8 IU/L
  ALT: 39.4 IU/L
  AST: 67.2 IU/L
  BUN: 12.6 mg/dL
  CRE: 0.2 mg/dL
  Ca: 10.7 mg/dL
  Cl: 103 meq/L
  DBIL: 0.01 mg/dL
  GLC: 170.8 mg/dL
  IP: 8.2 mg/dL
  K: 3.9 meq/L
  LDH: 89.6 IU/L
  Na: 140.4 meq/L
  PL: 148.4 mg/dL
  RALB: 2.6 g/dL
  TBIL: 0.06 mg/dL
  TC: 81 mg/dL
  TG: 98 mg/dL
  TP: 5.5 g/dL
  gamma-GTP: 1.2 IU/L
[2]
  TERMINAL_BW: 272.1 g
  APTT: 17.2 s
  Bas: 0%
  Eos: 1%
  Fbg: 323 mg/dL
  Hb: 14.1 g/dL
  Ht: 41.7%
  Lym: 74.6%
  MCH: 21.1 pg
  MCHC: 33.8%
  MCV: 62.4 fL
  Mono: 2.6%
  Neu: 21%
  PT: 13.1 s
  Plat: 128.3 x10_4/uL
  RBC: 669.4 x10_4/ul
  Ret: 6.1%
  WBC: 95.8 x10_2/uL
  KIDNEY_L: 1.1 g
  KIDNEY_R: 1.1 g
  KIDNEY_TOTAL: 2.3 g
  LIVER: 12.7 g
  A/G: 0.9
  ALP: 1607 IU/L
  ALT: 50 IU/L
  AST: 77.2 IU/L
  BUN: 16.4 mg/dL
  CRE: 0.2 mg/dL
  Ca: 10.9 mg/dL
  Cl: 104.2 meq/L
  DBIL: 0.012 mg/dL
  GLC: 183.6 mg/dL
  IP: 7.5 mg/dL
  K: 4.2 meq/L
  LDH: 80.6 IU/L
  Na: 142 meq/L
  PL: 147.6 mg/dL
  RALB: 2.6 g/dL
  TBIL: 0.054 mg/dL
  TC: 75 mg/dL
  TG: 91.6 mg/dL
  TP: 5.7 g/dL
  gamma-GTP: 1 IU/L
[3]
  TERMINAL_BW: 332.7 g
  APTT: 23.4 s
  Bas: 0%
  Eos: 0.8%
  Fbg: 272.2 mg/dL
  Hb: 14.8 g/dL
  Ht: 44%
  Lym: 78.8%
  MCH: 21 pg
  MCHC: 33.7%
  MCV: 62.2 fL
  Mono: 2%
  Neu: 17.8%
  PT: 13.2 s
  Plat: 126.6 x10_4/uL
  RBC: 706.8 x10_4/ul
  Ret: 5%
  WBC: 105.8 x10_2/uL
  KIDNEY_L: 1.2 g
  KIDNEY_R: 1.3 g
  KIDNEY_TOTAL: 2.5 g
  LIVER: 15.1 g
  A/G: 0.8
  ALP: 1744.6 IU/L
  ALT: 39 IU/L
  AST: 69.8 IU/L
  BUN: 16.2 mg/dL
  CRE: 0.2 mg/dL
  Ca: 10.6 mg/dL
  Cl: 105 meq/L
  DBIL: 0.01 mg/dL
  GLC: 186 mg/dL
  IP: 6.8 mg/dL
  K: 4.1 meq/L
  LDH: 95.2 IU/L
  Na: 142 meq/L
  PL: 141.6 mg/dL
  RALB: 2.7 g/dL
  TBIL: 0.05 mg/dL
  TC: 67.4 mg/dL
  TG: 135.4 mg/dL
  TP: 5.9 g/dL
  gamma-GTP: 1 IU/L
[4]
  TERMINAL_BW: 401.7 g
  APTT: 20.2 s
  Bas: 0%
  Eos: 1%
  Fbg: 282.8 mg/dL
  Hb: 15.3 g/dL
  Ht: 44.4%
  Lym: 79.6%
  MCH: 20.2 pg
  MCHC: 34.4%
  MCV: 58.6 fL
  Mono: 2%
  Neu: 16%
  PT: 13.7 s
  Plat: 95.8 x10_4/uL
  RBC: 757.4 x10_4/ul
  Ret: 2.2%
  WBC: 88.5 x10_2/uL
  KIDNEY_L: 1.4 g
  KIDNEY_R: 1.3 g
  KIDNEY_TOTAL: 2.7 g
  LIVER: 16.3 g
  A/G: 0.8
  ALP: 1170.4 IU/L
  ALT: 46.4 IU/L
  AST: 70.8 IU/L
  BUN: 15.6 mg/dL
  CRE: 0.2 mg/dL
  Ca: 10.8 mg/dL
  Cl: 105 meq/L
  DBIL: 0.012 mg/dL
  GLC: 190.8 mg/dL
  IP: 5.9 mg/dL
  K: 4.1 meq/L
  LDH: 82.6 IU/L
  Na: 142.2 meq/L
  PL: 141.6 mg/dL
  RALB: 2.7 g/dL
  TBIL: 0.048 mg/dL
  TC: 65.4 mg/dL
  TG: 154.8 mg/dL
  TP: 6 g/dL
  gamma-GTP: 1 IU/L
[5]
  TERMINAL_BW: 230.8 g
  APTT: 17.8 s
  Bas: 0%
  Eos: 1%
  Fbg: 308.6 mg/dL
  Hb: 13.5 g/dL
  Ht: 40.6%
  Lym: 75.8%
  MCH: 21.2 pg
  MCHC: 33.3%
  MCV: 63.7 fL
  Mono: 2.8%
  Neu: 19.6%
  PT: 13 s
  Plat: 118.2 x10_4/uL
  RBC: 638.2 x10_4/ul
  Ret: 6.9%
  WBC: 90.6 x10_2/uL
  KIDNEY_L: 1 g
  KIDNEY_R: 1 g
  KIDNEY_TOTAL: 2 g
  LIVER: 10.9 g
  A/G: 0.9
  ALP: 1494.4 IU/L
  ALT: 46.8 IU/L
  AST: 74 IU/L
  BUN: 13.4 mg/dL
  CRE: 0.2 mg/dL
  Ca: 10.7 mg/dL
  Cl: 104.2 meq/L
  DBIL: 0.012 mg/dL
  GLC: 169.8 mg/dL
  IP: 7.7 mg/dL
  K: 3.9 meq/L
  LDH: 95.2 IU/L
  Na: 140 meq/L
  PL: 140 mg/dL
  RALB: 2.6 g/dL
  TBIL: 0.062 mg/dL
  TC: 75.2 mg/dL
  TG: 87 mg/dL
  TP: 5.5 g/dL
  gamma-GTP: 1 IU/L
[6]
  TERMINAL_BW: 275.6 g
  APTT: 16.9 s
  Bas: 0%
  Eos: 1%
  Fbg: 302.6 mg/dL
  Hb: 13.6 g/dL
  Ht: 40.4%
  Lym: 79.8%
  MCH: 20.9 pg
  MCHC: 33.7%
  MCV: 62.2 fL
  Mono: 2.2%
  Neu: 16.2%
  PT: 13.1 s
  Plat: 119.8 x10_4/uL
  RBC: 649.4 x10_4/ul
  Ret: 6.1%
  WBC: 120 x10_2/uL
  KIDNEY_L: 1.1 g
  KIDNEY_R: 1.1 g
  KIDNEY_TOTAL: 2.2 g
  LIVER: 13.9 g
  A/G: 0.9
  ALP: 1346.8 IU/L
  ALT: 41.2 IU/L
  AST: 66 IU/L
  BUN: 16.6 mg/dL
  CRE: 0.2 mg/dL
  Ca: 10.9 mg/dL
  Cl: 103.2 meq/L
  DBIL: 0.012 mg/dL
  GLC: 182.4 mg/dL
  IP: 7.3 mg/dL
  K: 3.9 meq/L
  LDH: 88.4 IU/L
  Na: 141.4 meq/L
  PL: 140.2 mg/dL
  RALB: 2.6 g/dL
  TBIL: 0.048 mg/dL
  TC: 66.4 mg/dL
  TG: 134.8 mg/dL
  TP: 5.7 g/dL
  gamma-GTP: 1 IU/L
[7]
  TERMINAL_BW: 312 g
  APTT: 21 s
  Bas: 0%
  Eos: 1%
  Fbg: 297 mg/dL
  Hb: 14.7 g/dL
  Ht: 43.8%
  Lym: 79%
  MCH: 20.6 pg
  MCHC: 33.5%
  MCV: 61.4 fL
  Mono: 1.8%
  Neu: 17.4%
  PT: 13.3 s
  Plat: 135 x10_4/uL
  RBC: 713.4 x10_4/ul
  Ret: 4.4%
  WBC: 106.9 x10_2/uL
  KIDNEY_L: 1.2 g
  KIDNEY_R: 1.2 g
  KIDNEY_TOTAL: 2.4 g
  LIVER: 13.4 g
  A/G: 0.8
  ALP: 1516 IU/L
  ALT: 40 IU/L
  AST: 69.8 IU/L
  BUN: 17.4 mg/dL
  CRE: 0.3 mg/dL
  Ca: 10.7 mg/dL
  Cl: 105.2 meq/L
  DBIL: 0.006 mg/dL
  GLC: 184 mg/dL
  IP: 7 mg/dL
  K: 4.1 meq/L
  LDH: 88.8 IU/L
  Na: 142.2 meq/L
  PL: 138.2 mg/dL
  RALB: 2.7 g/dL
  TBIL: 0.046 mg/dL
  TC: 69.8 mg/dL
  TG: 89 mg/dL
  TP: 5.8 g/dL
  gamma-GTP: 1 IU/L
[8]
  TERMINAL_BW: 399.3 g
  APTT: 17.7 s
  Bas: 0.4%
  Eos: 1.2%
  Fbg: 283 mg/dL
  Hb: 16.2 g/dL
  Ht: 47.2%
  Lym: 83.6%
  MCH: 19.6 pg
  MCHC: 34.4%
  MCV: 57 fL
  Mono: 2%
  Neu: 12.6%
  PT: 13.3 s
  Plat: 102.8 x10_4/uL
  RBC: 829 x10_4/ul
  Ret: 2.2%
  WBC: 110.1 x10_2/uL
  KIDNEY_L: 1.4 g
  KIDNEY_R: 1.3 g
  KIDNEY_TOTAL: 2.7 g
  LIVER: 16.6 g
  A/G: 0.8
  ALP: 1153.4 IU/L
  ALT: 35.4 IU/L
  AST: 63.6 IU/L
  BUN: 18.4 mg/dL
  CRE: 0.3 mg/dL
  Ca: 10.8 mg/dL
  Cl: 104.6 meq/L
  DBIL: 0.014 mg/dL
  GLC: 180.2 mg/dL
  IP: 6.5 mg/dL
  K: 4 meq/L
  LDH: 72.6 IU/L
  Na: 142 meq/L
  PL: 151.8 mg/dL
  RALB: 2.8 g/dL
  TBIL: 0.058 mg/dL
  TC: 73.4 mg/dL
  TG: 166.2 mg/dL
  TP: 6.2 g/dL
  gamma-GTP: 1.2 IU/L
